Like-named read-outs stand apart in the source and are kept apart here.
Key:
Format in all cases: in vivo
[1] = tested on: Echinochloa crus-galli var. oryzicola; assay: Test Example 1: pot test on selectivity, inhibition of Echinochloa crus-galli var. oryzicola; conditions: for inhibition at 750 g/ha / inhibition at 1500 g/ha / inhibition at 3000 g/ha / inhibition at 6000 g/ha / inhibition at 9000 g/ha: Echinochloa crus-galli, 720 h; for inhibition at 1500 g/ha: 150 g/10 are; for inhibition at 3000 g/ha: 300 g/10 are; for inhibition at 6000 g/ha: 600 g/10 are; for inhibition at 9000 g/ha: 900 g/10 are; for activity for killing Echinochloa spp.: trans-form, cis-form and mixtures compared
Outline: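 Inhibition rate was calculated from weed and rice dry weight relative to untreated pots, measured 30 days after treatment. The emulsion, at predetermined concentrations, was applied dropwise to flooded (~1 cm) paddy-soil pots sown with Echinochloa crus-galli var. oryzicola and rice, at the weed's one-leaf and five-leaf stages.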

Dopatrium junceum = assay: Test Example 5: Wagner pot test, herbicidal effect on Dopatrium junceum
Experimental: (§1) In a 1/7500 are Wagner pot, sieved paddy field soil (alluvial soil) was charged. Thereafter, in the center portion of the pot, 2 roots of paddy rice (Asahi species) at the 2- to 3-leaf stage were transplanted and 20 seeds of Bulrush per pot were seeded in the surface of the above soil. The pot was submerged at the depth of about 2 cm. The other Dopatrium junceum and umbrella plant were generated naturally. After seeding, when each of the weeds reached the same leaf age as defined in Table 5 given herein, a predetermined concentration of the emulsion prepared according to Example 4 was applied dropwise on the surface of the pot. The test was carried out by repeating the same test three times per area and the results were determined 20 days after the application of the chemicals with regard to the herbicidal effect and chemical injury on paddy rice on the basis of the evaluation index as shown below.
(§2) As the comparative chemicals Molinate, Benthiocarb and DCMU, those commercially available were used.
(§3) In the above table, the inhibition rate was calculated according to the method as described in Test Example 1.

[2] = tested on: Echinochloa crus-galli var. oryzicola; assay: Test Example 3: field test in transplanted paddy field, Echinochloa crus-galli var. oryzicola; conditions: Echinochloa crus-galli, 1440 h; 300 g/10 are, granule, applied at 4-leaf stage, examined 60 days after transplantation; read-out: Inhibition (%) of E. crus-galli var. oryzicola
Experimental: (§4) In a Wagner pot of 1/500 are, paddy field soil (alluvial soil) was placed and 50 seeds of Echinochloa crus-galli var. oryzicola and 30 seeds of paddy rice were seeded in the surface layer of said soil and the submerging depth was kept at about 1 cm. When Echinochloa crus-galli var. oryzicola reached at the one leaf stage and 5-leaf stage, the emulsion of a predetermined concentration, prepared according to Example 4 was added dropwise. After 30 days from the treatment with the chemical, dry weights of Echinochloa crus-galli var. oryzicola and paddy rice were measured and the inhibition rate was calculated with reference to untreated area. [formula]
In a 10 m^2 paddy field, young seedlings of paddy rice (Asahi species) at the 2,5-leaf stage were transplanted 30 days after the puddling the submerging at the depth of 3-5 cm. 25 Days after the transplantation, when Echinochloa crus-galli var. oryzicola reached 4-leaf stage, a predetermined dose of the granule prepared according to Example 1 was applied. Test results were examined 60 days after the transplantation of paddy rice in the similar manner as in Test Example 1.
Comparative chemicals used were all those commercially available and in the case of the comparative chemical 2, CNP was applied 3 days after the transplantation of paddy rice and after 25 days a mixture of Benthiocarb and Simetryne was applied.

Umbrella plant = assay: Test Example 5: Wagner pot test, herbicidal effect on umbrella plant; conditions: 20 days after application
Experimental: as §1, §2, §3

[3] = tested on: Echinochloa crus-galli var. oryzicola; assay: Test Example 4: field test in submerged directly seeded paddy field, Echinochloa crus-galli var. oryzicola; conditions: Echinochloa crus-galli, 504 h; 300 g/10 are, emulsion, 2- to 3-leaf stage, 21 days after application; read-out: Inhibition (%) of E. crus-galli var. oryzicola
Experimental: as §4
In a 10 m^2 paddy field, 30 g of Echinochloa crus-galli var. oryzicola seeds were seeded at the time of puddling and the depth of submerging was kept at 3-5 cm. 3 Days after the puddling, 50 g of paddy rice at the emergence stage (Asahi species) were seeded. When Echinochloa crus-galli var. oryzicola and paddy rice reached a 2- to 3-leaf stage, a predetermined dose of the emulsion prepared according to Example 4 was applied uniformly by means of a manual spraying machine. Test results were examined 21 days after the application of the chemicals in the similar manner as in Test Example 1.
The comparative chemical 1 used was that commercially available and the comparative chemical 2 used was prepared according to Example 4.

[4] = 75 g/10 are, 1-leaf stage, dry weight 30 days after treatment, read-out: Inhibition (%) by treatment at 1-leaf stage, E. crus-galli var. oryzicola
[5] = 75 g/10 are, 5-leaf stage, dry weight 30 days after treatment, read-out: Inhibition (%) by treatment at 5-leaf stage, E. crus-galli var. oryzicola
[6] = 1-leaf stage, dry weight 30 days after treatment, read-out: Inhibition (%) by treatment at 1-leaf stage, E. crus-galli var. oryzicola
[7] = 5-leaf stage, dry weight 30 days after treatment, read-out: Inhibition (%) by treatment at 5-leaf stage, E. crus-galli var. oryzicola
[8] = 300 g/10a, leaf age 2, 20 days after application
[9] = 300 g/10a, leaf age 3, 20 days after application
[10] = 600 g/10a, leaf age 2, 20 days after application
[11] = 600 g/10a, leaf age 3, 20 days after application
[12] = 300 g/10a, leaf age 2 (first group of columns)
[13] = 300 g/10a, leaf age 2 (second group of columns)
[14] = 600 g/10a, leaf age 2 (first group of columns)
[15] = 600 g/10a, leaf age 2 (second group of columns)

Structure (SMILES) | inhibition at 750 g/ha [1, 4] | inhibition at 750 g/ha [1, 5] | inhibition at 1500 g/ha [1, 6] | inhibition at 1500 g/ha [1, 7] | inhibition at 3000 g/ha [1, 6] | inhibition at 3000 g/ha [1, 7] | inhibition at 6000 g/ha [1, 6] | inhibition at 6000 g/ha [1, 7] | inhibition at 9000 g/ha [1, 6] | inhibition at 9000 g/ha [1, 7] | Weed kill degree, Dopatrium junceum (Dopatrium junceum; [8]) | Weed kill degree, Dopatrium junceum (Dopatrium junceum; [9]) | Weed kill degree, Dopatrium junceum (Dopatrium junceum; [10]) | Weed kill degree, Dopatrium junceum (Dopatrium junceum; [11]) | inhibition at 3000 g/ha [2] | Weed kill degree, Umbrella plant (Umbrella plant; [12]) | Weed kill degree, Umbrella plant (Umbrella plant; [13]) | Weed kill degree, Umbrella plant (Umbrella plant; [14]) | Weed kill degree, Umbrella plant (Umbrella plant; [15]) | inhibition at 3000 g/ha [3] | other results
C/C=C/COc1ccc(NC(=O)N(C)C)cc1 [trans-form, 3-(4-trans-crotyloxyphenyl)-1,1-dimethyl urea] | 96% | 86% | 100% | 100% | 100% | 100% | 100% | 100% | 100% | 100% | 5 (100) | 5 (100) | 5 (100) | 5 (100) | 100% | 5 (100) | 5 (100) | 5 (100) | 5 (100) | 100% | activity for killing Echinochloa spp. [1]: equivalent
C/C=C\COc1ccc(NC(=O)N(C)C)cc1 [cis-form, 3-(4-cis-crotyloxyphenyl)-1,1-dimethyl urea] | 95% | 82% | 100% | 100% | 100% | 100% | 100% | 100% | 100% | 100% | 5 (100) | 5 (100) | 5 (100) | 5 (100) | 100% | 5 (100) | 5 (100) | 5 (100) | 5 (100) | 100% | activity for killing Echinochloa spp. [1]: equivalent
CC=CCOc1ccc(NC(=O)N(C)C)cc1 [Mixture of trans- and cis-forms 1:1] | – | – | – | – | – | – | – | – | – | – | 5 (100) | 5 (100) | 5 (100) | 5 (100) | 100% | 5 (100) | 5 (100) | 5 (100) | 5 (100) | 100% | Inhibition (%) by treatment at 1-leaf stage, E. crus-galli var. oryzicola ([1]; 75 g/10 are, 1-leaf stage, dry weight 30 days after treatment): 96%; Inhibition (%) by treatment at 5-leaf stage, E. crus-galli var. oryzicola ([1]; 75 g/10 are, 5-leaf stage, dry weight 30 days after treatment): 83%

Source: patent US4255183A, “Substituted phenyl urea and herbicides for use in paddy field” (Hokko Chemical Industry Co., Ltd., priority 1977, dated 1981)
